The values that follow come from PubChem BioAssay AID248 (DTP/NCI, 2004).

The structures appear in SMILES notation. Toxic doses and inconclusive results are not listed.

For the assay, the system named is L1210 leukemia ip in BDF1 mice, survival T/C. Description: NCI In Vivo Anticancer Drug Screen. Data for tumor model L1210 Leukemia (intraperitoneal) in B6D2F1 (BDF1) mice. The note with it: endpoint: mean survival time, higher = longer survival. In outline:
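Read-out is survival time, reported as the treated-group measurement over the vehicle-control measurement.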

The mark [1] stands for this setting: dose: 100.0 mg/kg/injection, schedule: Q04DX003 (ip), vehicle: saline.
Setting [2] is: dose: 200.0 mg/kg/injection, schedule: Q04DX003 (ip), vehicle: saline.
Where [3] appears, read: dose: 400.0 mg/kg/injection, schedule: Q04DX003 (ip), vehicle: saline.
The mark [4] stands for this setting: dose: 100.0 mg/kg/injection, schedule: Q04DX002 (ip), vehicle: Klucel (hydroxypropylcellulose) (HPC).
[5] abbreviates: dose: 200.0 mg/kg/injection, schedule: Q04DX002 (ip), vehicle: Klucel (hydroxypropylcellulose) (HPC).
Setting [6] is: dose: 100.0 mg/kg/injection, schedule: Q04DX003 (ip), vehicle: Klucel (hydroxypropylcellulose) (HPC).
[7] abbreviates: dose: 200.0 mg/kg/injection, schedule: Q04DX003 (ip), vehicle: Klucel (hydroxypropylcellulose) (HPC).
The mark [8] stands for this setting: dose: 400.0 mg/kg/injection, schedule: Q04DX003 (ip), vehicle: Klucel (hydroxypropylcellulose) (HPC).
The mark [9] stands for this setting: dose: 100.0 mg/kg/injection, schedule: Q01DX009 (ip), vehicle: saline with Tween-80.
Setting [10] is: dose: 100.0 mg/kg/injection, schedule: Q04DX003 (ip), vehicle: saline with Tween-80.
[11] abbreviates: dose: 200.0 mg/kg/injection, schedule: Q01DX009 (ip), vehicle: saline with Tween-80.
[12] abbreviates: dose: 200.0 mg/kg/injection, schedule: Q04DX003 (ip), vehicle: saline with Tween-80.
The mark [13] stands for this setting: dose: 400.0 mg/kg/injection, schedule: Q04DX003 (ip), vehicle: saline with Tween-80.
Setting [14] is: dose: 400.0 mg/kg/injection, schedule: Q04DX002 (ip), vehicle: Klucel (hydroxypropylcellulose) (HPC).
Setting [15] is: dose: 100.0 mg/kg/injection, schedule: Q01DX001 (ip), vehicle: carboxymethylcellulose (CMC).
The mark [16] stands for this setting: dose: 200.0 mg/kg/injection, schedule: Q01DX001 (ip), vehicle: carboxymethylcellulose (CMC).
Where [17] appears, read: dose: 400.0 mg/kg/injection, schedule: Q01DX001 (ip), vehicle: carboxymethylcellulose (CMC).
The mark [18] stands for this setting: dose: 400.0 mg/kg/injection, schedule: Q01DX009 (ip), vehicle: saline with Tween-80.
Setting [19] is: dose: 50.0 mg/kg/injection, schedule: Q01DX009 (ip), vehicle: saline.
[20] abbreviates: dose: 100.0 mg/kg/injection, schedule: Q01DX001 (ip), vehicle: saline.
Setting [21] is: dose: 200.0 mg/kg/injection, schedule: Q01DX001 (ip), vehicle: saline.

For `CNC(=O)c1ccccc1`, the T/C under setting [1] is 104 % of control, the T/C under setting [2] is 98 % of control and the T/C under setting [3] was 98 % of control.
Regarding `CC(C)C(C=NCC(CCN(C)C)(c1ccc2ccccc2c1)C(C)C)(CCN(C)C)c1ccc2ccccc2c1` (stereo not given), the T/C was 87 % of control (dose: 6.25 mg/kg/injection, schedule: Q04DX002 (ip), vehicle: saline + alcohol); 93 % of control (dose: 12.5 mg/kg/injection, schedule: Q04DX002 (ip), vehicle: saline + alcohol); 93 % of control (dose: 25.0 mg/kg/injection, schedule: Q04DX002 (ip), vehicle: saline + alcohol).
`Clc1ccc(/C=C/c2ccc(Cl)cc2)cc1`: the T/C was 95 % of control (dose: 75.0 mg/kg/injection, schedule: Q04DX003 (ip), vehicle: Klucel (hydroxypropylcellulose) (HPC)); 95 % of control (dose: 150.0 mg/kg/injection, schedule: Q04DX003 (ip), vehicle: Klucel (hydroxypropylcellulose) (HPC)); 98 % of control (dose: 300.0 mg/kg/injection, schedule: Q04DX003 (ip), vehicle: Klucel (hydroxypropylcellulose) (HPC)).
For the molecule `Cc1c(Br)c(C)c(Br)c(OCC(=O)O)c1Br`, the T/C reads like this: under setting [4], 98 % of control; under setting [5], 109 % of control.
`C(=C1\CC(c2ccccc2)(c2ccccc2)N=N1)/c1ccccc1`: the T/C was 91 % of control under setting [6], 114 % of control under setting [7] and 101 % of control under setting [8].
As to `CC(C)COC(C[N+](=O)[O-])C(Cl)(Cl)Cl` (stereo not given), the T/C is 98 % of control under setting [9]; 92 % of control under setting [10]; 89 % of control under setting [11]; 90 % of control under setting [12]; 92 % of control under setting [13].
With `NC(=O)NC(=O)c1nc2ccccc2[nH]c1=O`, the T/C is 95 % of control under setting [4], 95 % of control under setting [5] and 100 % of control under setting [14].
In the case of `CCN(CC)CCN(C)C(=O)C1C(c2ccccc2)C1c1ccccc1` (stereo not given), the T/C is 93 % of control (dose: 25.0 mg/kg/injection, schedule: Q04DX002 (ip), vehicle: Klucel (hydroxypropylcellulose) (HPC)) and 105 % of control (dose: 50.0 mg/kg/injection, schedule: Q04DX002 (ip), vehicle: Klucel (hydroxypropylcellulose) (HPC)).
Regarding `CCOC(=O)C1=C(C)NC(C)=C(C(=O)OCC)C1c1ccccc1Cl`, the T/C is 97 % of control under setting [1], 117 % of control under setting [2] and 87 % of control under setting [3].
Consider `C/C=C/c1ccc2ccccc2c1`, for which the T/C was 104 % of control under setting [15], 96 % of control under setting [16] and 104 % of control under setting [17].
Consider `C=CCc1c2c(ccc(OC)c1=O)-c1c(cc(OC)c(OC)c1OC)CCC2NC(C)=O` (stereo not given), for which the T/C is 106 % of control under setting [15], 109 % of control under setting [16] and 109 % of control under setting [17].
On to `CCCSCCCCSCCC`, for which the T/C reads like this: (dose: 25.0 mg/kg/injection, schedule: Q04DX003 (ip), vehicle: saline with Tween-80) 115 % of control; (dose: 50.0 mg/kg/injection, schedule: Q04DX003 (ip), vehicle: saline with Tween-80) 104 % of control; under setting [9], 100 % of control; under setting [10], 102 % of control; under setting [11], 109 % of control; under setting [12], 92 % of control. Moreover, the T/C under setting [18] is 91 % of control and the T/C under setting [13] was 95 % of control.
Take `CCOC(=O)c1ccc(NC(=O)CS)cc1`: the T/C reads like this: under setting [10], 89 % of control; under setting [12], 94 % of control; under setting [13], 97 % of control.
With `C[n+]1ccc(NC(=O)c2ccc(NC(=O)c3ccc(C(=O)Nc4ccc(C(=O)Nc5cc[n+](C)cc5)cc4)cc3)cc2)cc1`, the T/C (dose: 62.0 mg/kg/injection, schedule: Q01DX Z (ip), vehicle: carboxymethylcellulose (CMC)) was 103 % of control; the T/C (dose: 100.0 mg/kg/injection, schedule: Q01DX001 (ip), vehicle: other) was 97 % of control; the T/C under setting [9] was 105 % of control; the T/C (dose: 100.0 mg/kg/injection, schedule: Q04DX003 (ip), vehicle: other) is 101 % of control; the T/C (dose: 125.0 mg/kg/injection, schedule: Q01DX Z (ip), vehicle: carboxymethylcellulose (CMC)) is 118 % of control; the T/C (dose: 200.0 mg/kg/injection, schedule: Q01DX001 (ip), vehicle: other) was 104 % of control. Besides, the T/C reads like this: under setting [11], 115 % of control; (dose: 200.0 mg/kg/injection, schedule: Q04DX003 (ip), vehicle: other) 103 % of control; (dose: 400.0 mg/kg/injection, schedule: Q01DX001 (ip), vehicle: other) 103 % of control; under setting [18], 114 % of control; (dose: 400.0 mg/kg/injection, schedule: Q04DX003 (ip), vehicle: other) 98 % of control; (dose: 500.0 mg/kg/injection, schedule: Q01DX Z (ip), vehicle: carboxymethylcellulose (CMC)) 152 % of control.
For the molecule `CCCCCCCCCCCCC(=O)N(CCCC)CCCC`, the T/C is, setting by setting: under setting [4], 92 % of control; under setting [5], 96 % of control; under setting [14], 103 % of control.
Regarding `COc1ccc(C(=O)CC(C)C(=O)O)c(O)c1C` (stereo not given), the T/C is 95 % of control under setting [6], 98 % of control under setting [7] and 96 % of control under setting [8].
With `CNNC(=O)Cc1ccc(OC)cc1`, the T/C is, setting by setting: under setting [19], 100 % of control; under setting [20], 100 % of control; under setting [21], 113 % of control.
In the case of `O=C1C=C(C(=O)O)C(c2ccccc2)CC1` (stereo not given), the T/C is 88 % of control (dose: 100.0 mg/kg/injection, schedule: Q01DX009 (ip), vehicle: Klucel (hydroxypropylcellulose) (HPC)); 100 % of control under setting [6]; 95 % of control (dose: 200.0 mg/kg/injection, schedule: Q01DX009 (ip), vehicle: Klucel (hydroxypropylcellulose) (HPC)); 95 % of control under setting [7]; 98 % of control (dose: 400.0 mg/kg/injection, schedule: Q01DX009 (ip), vehicle: Klucel (hydroxypropylcellulose) (HPC)); 98 % of control under setting [8].
Consider `O=S1(=O)C=C(Cl)C(Cl)C1` (stereo not given), for which the T/C (dose: 25.0 mg/kg/injection, schedule: Q01DX009 (ip), vehicle: saline) is 93 % of control; the T/C under setting [19] was 86 % of control; the T/C (dose: 50.0 mg/kg/injection, schedule: Q04DX003 (ip), vehicle: saline) is 95 % of control; the T/C under setting [20] is 93 % of control; the T/C under setting [1] is 92 % of control; the T/C under setting [21] was 102 % of control.
Take `C1N2CN3CN1CN(C2)C3` (tested in a mixture with another compound): the T/C runs as follows: under setting [10], 107 % of control; under setting [12], 103 % of control; under setting [13], 102 % of control.
